Read-outs that look alike come from different tables or passages of the source.
Assays:
B16F10 tumor = assay: Mouse tumor model, B16F10; type: in vivo; conditions: B16F10 tumor-bearing C57BL/6 mice on enriched diet vs control diet
Procedure: For C57BL/6 mice and TCR-a KO mice tumor model, mice were anesthetized with isoflurane, shaved the injection site, and then injected subcutaneously in the abdominal flank with 1×10^5 B16F10, MC38, or LLC1 cells, or in the mammary gland with 2×10^5 E0771 cells. C57BL/6 nude mice were injected subcutaneously in the abdominal flank with 1×10^5B16F10 cells. […] Tumors were measured the tumors using a caliper every 2-3 days. Tumor volumes were calculated using the following formula: length×width×[(length×width)^0.5]×π/6. Mice were euthanized at humane endpoints or day 11-15 for tissue collection.
The mice were treated once a day for 5 consecutive days per week for 2 weeks. Tumors were measured the tumors using a caliper every 2-3 days. Tumor volumes were calculated using the following formula: length×width×[(length×width)^0.5]×π/6. Mice were euthanized at humane endpoints.
For anti-PD-1 treatment mouse model, 6-8 weeks old C57BL/6 mice were anesthetized with isoflurane, shaved the injection site, and then injected subcutaneously in the abdominal flank with 1×10^5 B16F10 for tumor development. […] In day 3, 6, 9, 12, and 15, 250 μg anti-PD-1 (BioXCell) or IgG control (BioXCell) was injected intraperitoneally per mouse. Tumors were measured the tumors using a caliper every 2-3 days. Tumor volumes were calculated using the following formula: length×width×[(length×width)^0.5]×π/6. […]

[1] = test system: mouse primary CD8^+ T cells; assay: In vitro function of activated mouse primary CD8+ T cells (cytokines, Ki-67, apoptosis, p-CREB); type: cell-based; conditions: for effect of inhibitor/modulator on TVA-enhanced activation of CD8+ T cells (IL-2, TNF-α, IFN-γ): added synchronized with 20 μM TVA for 24 hours, SCH-202676 200 nM, H-89 200 nM, 666-15 100 nM
Procedure: For experiments with live/dead criteria, cells were first stained with Fixable Viability Dyes (FVD) (Thermo Fisher Scientific) according to the manufacturer's instructions. Subsequent surface marker staining was performed in Flow Cytometry Staining Buffer (Thermo Fisher Scientific). Intracellular staining for flow panels containing nuclear proteins was performed using the eBioscience FoxP3/Transcription Factor Staining Buffer Set (Thermo Fisher Scientific) according to the manufacturer's instructions. For intracellular staining of cytoplasmic proteins, the Fixation/Permeabilization Solution Kit (BD Biosciences) was used according to the manufacturer's instructions. […] The cell pellets were washed again with FACS buffer, centrifuged at 300×g for 5 minutes, and incubated with antibodies in FACS buffer for 45 minutes-1 hour at room temperature. […] Treatment with sulfosuccinimidyl oleate (SSO) was performed by incubating cells with 100 μM SSO for 24 hours.

Mouse CD4^+ T cell = assay: Second screen: IL-2 level of mouse CD4+ T cells
Jurkat T cells = type: cell-based, human; conditions: IL-2 production level in treated group compared to control group, 48 hours treatment, then anti-CD3/anti-CD28 12 hours
Mouse T cell = assay: Second screen: IL-2 level of murine primary T cells; type: cell-based
Excerpt: Two preliminary screens were designed and performed.

Mouse CD8^+ T cell = assay: Second screen: IL-2 level of mouse CD8+ T cells
[2] = test system: mouse primary CD8^+ T cells; assay: 13C1-TVA metabolic flux analysis by GC-MS; type: cell-based; conditions: 100 μM SSO, 24 hours
Procedure: Samples were kept at room temperature after centrifugation to form two distinct phases. 650 μL of the bottom dichloromethane fraction was transferred into a new glass tube and dried with nitrogen gas to obtain a lipid fraction pellet. […] FAME cleanup was applied if analyzing animal tissues (FAME Cleanup: a Florisil column was pre-conditioned with 3 mL of hexane, added methyl ester, and eluted twice with 1 mL isohexane-diethyl ether (95:5 v/v), with drying down in between elutions). Otherwise, samples were dried down under nitrogen and re-suspended in 50 μL of hexane to load onto gas chromatography (GC) mass spectrometry (MS). […] Metabolite levels and mass isotopomer distributions of derivatized fragments were analyzed with an in-house MATLAB script, which integrated the metabolite fragment ions and corrected for natural isotope abundances.

[3] = test system: B cell acute lymphoblastic leukemia (B-ALL); conditions: Kantarjian et al., 2017; cited from earlier work
[4] = test system: mouse melanoma B16 cells with CD8+ T cells; assay: CD8+ T cell mediated killing of B16 cells in vitro; type: cell-based
[5] = test system: murine melanoma B16 cells; assay: Oral gavage in syngeneic mice inoculated with B16 cells; type: in vivo, mouse

Compound | Relative changed percentage (%) (Jurkat T cells) | also measured
CCCCCC/C=C\CCCCCCCCCC(=O)O [CVA, cis-Vaccenic acid, reference compound] |  | body weights of mice (B16F10 tumor): did not alter body weights
Cl.Cl.O=S(=O)(NCCNC/C=C/c1ccc(Br)cc1)c1cccc2cnccc12 [Compound H89, H 89 Dihydrochloride, reference compound] |  | effect of inhibitor/modulator on TVA-enhanced activation of CD8+ T cells (IL-2, TNF-α, IFN-γ) [1]: similarly abolishes TVA-enhanced activation of CD8^+ T cells
OC[C@H]1OC(O)[C@H](O)[C@@H](O)[C@H]1O (stereo partly drawn) [D(+)-GALACTOSE ANHYDROUS] | 35.84 | Mouse CD4^+ T cell IL-2 level changes after treatment (Mouse CD4^+ T cell): 110.4%; Mouse T cell IL-2 level changes after treatment (Mouse T cell): 130.1%; Mouse CD8^+ T cell IL-2 level changes after treatment (Mouse CD8^+ T cell): 130.3%
Nc1nc2nc[nH]c2c(=O)[nH]1 [GUANINE] | 15.14 | Mouse CD4^+ T cell IL-2 level changes after treatment (Mouse CD4^+ T cell): 110.4%; Mouse T cell IL-2 level changes after treatment (Mouse T cell): 148.6%; Mouse CD8^+ T cell IL-2 level changes after treatment (Mouse CD8^+ T cell): 150.8%
Br.CN=c1nc(-c2ccccc2)n(-c2ccccc2)s1 [SCH 202676 hydrobromide, reference compound] |  | effect of inhibitor/modulator on TVA-enhanced activation of CD8+ T cells (IL-2, TNF-α, IFN-γ) [1]: abolishes TVA-enhanced activation of CD8^+ T cells
CCCCCCCC/C=C\CCCCCCCC(=O)ON1C(=O)CC(S(=O)(=O)O)C1=O (stereo not shown) [SSO, sulfosuccinimidyl oleate, reference compound] |  | effect on import of 13C-TVA into CD8+ T cells [2]: drastically reduced import of ^13C-TVA; effect of SSO on TVA-dependent CD8+ T cell activation ([1]; 100 μM SSO, TNF-α, IFN-γ): does not affect TVA-dependent CD8^+ T cell activation
Cc1cn([C@H]2C[C@H](O)[C@@H](CO)O2)c(=O)[nH]c1=O [THYMIDINE] | 39.63 | Mouse CD4^+ T cell IL-2 level changes after treatment (Mouse CD4^+ T cell): 135.8%; Mouse T cell IL-2 level changes after treatment (Mouse T cell): 145.6%; Mouse CD8^+ T cell IL-2 level changes after treatment (Mouse CD8^+ T cell): 128.9%
CC(=O)O [acetate, reference compound] |  | enhanced CD8+ T cell activation by pre-treatment with 20 μM TVA (TVA first) ([1]; TVA 12 hours, then 20 mM acetate 12 hours): cannot be reversed by 20 mM acetate; CD8+ T cell activation (TNF-α, IFN-γ levels) ([1]; increasing concentrations of acetate up to 20 mM): attenuate CD8^+ T cell activation
Nc1ccc(C(=O)O)cc1 [p-Aminobenzoic Acid] |  | Mouse CD4^+ T cell IL-2 level changes after treatment (Mouse CD4^+ T cell): 140.5%; Mouse T cell IL-2 level changes after treatment (Mouse T cell): 160.3%; Mouse CD8^+ T cell IL-2 level changes after treatment (Mouse CD8^+ T cell): 145.2%
ALPHA 1 ANTITRYPSIN, HUMAN PLASMA | −10.6 | 
ARG8-VASOPRESSIN ACETATE SALT | −7.61 | 
Alpha-Tocopherol [(+/−)-A-TOCOPHEROL/Alpha-Tocopherol] | 40.65 | 
Bilirubin Mixed Isomers | −37.62 | 
Blinatumomab: bi-specific T-cell engager (BiTE) targeting CD19 antigen on B cells and CD3 on T cells |  | response rate in relapsed disease [3]: < 50%
Bromelain from pineapple stem | 16.0114 | 
C-PEPTIDE FRAGMENT 3-33, HUMAN [C-PEPTIDE FRAGMENT 3-33, HUMAN/C-peptide] | −11.7 | 
C-PEPTIDE FRAGMENT 3-33, HUMAN/C-peptide [#203] |  | CD8+ T cells mediated killing of mouse melanoma B16 cells [4]: enhances CD8+ T cells mediated killing of mouse melanoma B16 cells; killing and CD8 T cell function compared with TVA [4]: better than cells treated with TVA; anti-tumor immunity [5]: increased anti-tumor immunity in a dose dependent manner
CELLULOSE FIBROUS | −13.2 | 
CHITIN | 5.909 | 
CHONDROITIN SULFATE, A SODIUM SALT | 9.195 | 
Chondroitin sulfate sodium | −11.46 | 
Chromium picolinate | −4.067 | 
Collagen type II | 8.555 | 
Copper Gluconate | 4.0672 | 
D-(+)-MALTOSE MONOHYDRATE | −4.914 | 
D-Glycerate 2,3-diphosphate sodium salt | 47.74 | Mouse CD4^+ T cell IL-2 level changes after treatment (Mouse CD4^+ T cell): 97.9%; Mouse T cell IL-2 level changes after treatment (Mouse T cell): 106.2%; Mouse CD8^+ T cell IL-2 level changes after treatment (Mouse CD8^+ T cell): 121.4%
D-Pantothenic Acid, hemicalcium salt |  | Relative changed percentage (%) (Jurkat T cells; hemicalcium salt): 31.9171%; Relative changed percentage (%) (Jurkat T cells; listed as D-PANTOTHENIC ACID HEMICALCIUM, hemicalcium salt): −18.99%

Compound | Relative changed percentage (%) (Jurkat T cells) | also measured
Eicosatrienoic Acid | 15.36 | 
FERRITIN TYPE IV FROM HUMAN LIVER | 9.075 | 
GLYCOGEN | 13.75 | 
Gelatin | 59.8 | 
Hyaluronic acid sodium salt |  | Relative changed percentage (%) (Jurkat T cells; listed as HYALURONIC ACID SODIUM SALT, sodium salt): −9.738%; Relative changed percentage (%) (Jurkat T cells; sodium salt): 3.093%
IZING HORMONE RELEASING HORMONE HUMAN AC | −19.59 | 
Iron Gluconate | 3.271 | 
L-A-PHOSPHATIDYLCHOLINE TYPE XVI-E | 38.1 | 
L-A-PHOSPHATIDYLETHANOLAMINE TYPE I | 32.24 | 
L-a-Phosphatidylcholine | −37.16 | 
LECYSTOKININ FRAGMENT 26-33 AMIDE NON SULFA | 4.556 | 
LEPTIN | 27.09 | 
MANGANESE SULFATE MONOHYDRATE [MANGANESE SULFATE MONOHYDRATE,] | −14.23 | 
Magnesium citrate | 3.782 | 
PECTIN | −4.914 | 
PROINSULIN C-PEPTIDE (55-89) [PROINSULIN C-PEPTIDE (55-89)/c-peptide] | 17.8836 | 
SULFUR/sulfide | 24.14 | 
Silicic acid | −1.03 | 
Sphingomyelin | 95.24 | 
THYROCALCITONIN SALMON/calcitonin | 11.37 | 
Tricalcium phosphate hydrate | 51.49 | 
VASOACTIVE INTESTINAL PEPTIDE | 1.0212 | 
XANTHOPHYLL FROM MARIGOLD | 7.531 | 
ZINC SULFATE HEPTAHYDRATE | 1.046 | 
Zinc Picolinate | 5.492 | 
androsterone [AN[…],/androsterone] | 15.91 | 

Reference: patent publication US20250221953A1 (The University of Chicago, priority 2022, published 2025)
